According to ChEMBL document CHEMBL1126778, “Adenosine A1 antagonists. 3. Structure-activity relationships on amelioration against scopolamine- or N6-((R)-phenylisopropyl)adenosine-induced cognitive disturbance” (J Med Chem, 1993):
Values joined by “and” are separate entries in the source; they are usually repeats but may differ in a detail not shown here. Equal entries are not always repeated.

Columns and labels:
Mus musculus [1] = assay: Retention time in (R)-PIA) induced avoidance test (performed in mice) for antagonistic activity after p.o. administration of 1.25 mg/kg; type: functional, organism-based; set-up: dose 1.25 mg/kg
Rattus norvegicus [2] = assay: Retention time in Scopolamine induced avoidance test (performed in rat) for antagonistic activity after peroral administration of 0.02 mg/kg; type: functional, organism-based; set-up: dose 0.02 mg/kg
Adenosine receptor A1 = molecular target: T1, Adenosine receptor A1 (Cavia porcellus, UniProt P47745); assay: Binding affinity against Adenosine A1 receptor from guinea pig forebrain membranes by N6-[3H]- cyclohexyladenosine displacement.
T1 sequence (P47745 whole entry): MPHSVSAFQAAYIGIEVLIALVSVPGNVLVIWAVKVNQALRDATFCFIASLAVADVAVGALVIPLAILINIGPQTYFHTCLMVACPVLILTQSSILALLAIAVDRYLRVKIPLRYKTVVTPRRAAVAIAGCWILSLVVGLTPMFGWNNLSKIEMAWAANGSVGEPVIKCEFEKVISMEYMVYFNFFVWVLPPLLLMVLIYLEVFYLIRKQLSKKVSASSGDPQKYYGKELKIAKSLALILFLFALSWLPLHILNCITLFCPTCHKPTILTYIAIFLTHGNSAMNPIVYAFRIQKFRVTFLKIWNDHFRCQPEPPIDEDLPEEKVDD

Rattus norvegicus [3] = assay: Retention time in Scopolamine induced avoidance test (performed in rat) for antagonistic activity after peroral administration of 1.25 mg/kg; type: functional, organism-based; set-up: dose 1.25 mg/kg
Mus musculus [4] = assay: Retention time in (R)-PIA) induced avoidance test (performed in mice) for antagonistic activity after peroral administration of 5 mg/kg; type: functional, organism-based; set-up: dose 5 mg/kg
Rattus norvegicus [5] = assay: Retention time in Scopolamine induced avoidance test (performed in […]) for antagonistic activity after peroral administration of 5 mg/kg; type: functional, organism-based; set-up: dose 5 mg/kg
Rattus norvegicus [6] = assay: Acquisition time in Scopolamine induced avoidance test (performed in rat) for antagonistic activity after p.o. administration of 0.08 mg/kg; type: functional; details: route oral
Mus musculus [7] = assay: Acquisition time in (R)-PIA) induced avoidance test (performed in mice) for antagonistic activity after peroral administration of 5 mg/kg; type: functional; details: route oral
Mus musculus [8] = assay: Retention time in (R)-PIA) induced avoidance test (performed in mice) for antagonistic activity after peroral of 0.31 mg/kg; type: functional, organism-based; set-up: dose 0.31 mg/kg
Rattus norvegicus [9] = assay: Acquisition time in Scopolamine induced avoidance test (performed in rat) for antagonistic activity after p.o. administration of 0.31 mg/kg; type: functional; details: route oral
Mus musculus [10] = assay: Acquisition time in (R)-PIA) induced avoidance test (performed in mice) for antagonistic activity after peroral administration of 0.08 mg/kg; type: functional; details: route oral
Rattus norvegicus [11] = assay: Acquisition time in Scopolamine induced avoidance test (performed in rat) for antagonistic activity after peroral administration of 0.02 mg/kg; type: functional; details: route oral
Mus musculus [12] = assay: Acquisition time in (R)-PIA) induced avoidance test (performed in mice) for antagonistic activity after p.o. administration of 0.31 mg/kg; type: functional; details: route oral
Adenosine A2 receptor [13] = molecular target: T2, Adenosine A2 receptor (Rattus norvegicus, UniProt P29276+P30543); assay: Binding affinity against Adenosine A2 receptor from rat striatal membranes with N-[3H] ethyladenosin-5'-uronamide
Rattus norvegicus [14] = assay: Retention time in Scopolamine induced avoidance test (performed in rat) for antagonistic activity after peroral administration of 20 mg/kg; type: functional, organism-based; set-up: dose 20 mg/kg
Rattus norvegicus [15] = assay: Acquisition time in Scopolamine induced avoidance test (performed in rat) for antagonistic activity after peroral administration of 1.25 mg/kg; type: functional; details: route oral
Rattus norvegicus [16] = assay: Retention time in Scopolamine induced avoidance test (performed in rat) for antagonistic activity after p.o. administration of 0.08 mg/kg; type: functional, organism-based; set-up: dose 0.08 mg/kg
Rattus norvegicus [17] = assay: Acquisition time in Scopolamine induced avoidance test (performed in rat) for antagonistic activity after peroral administration of 20 mg/kg; type: functional; details: route oral
Mus musculus [18] = assay: Retention time in (R)-PIA) induced avoidance test (performed in mice) for antagonistic activity after peroral administration of 0.08 mg/kg; type: functional, organism-based; set-up: dose 0.08 mg/kg
Rattus norvegicus [19] = assay: Acquisition time in Scopolamine induced avoidance test (performed in rat) for antagonistic activity after p.o. administration of 5 mg/kg; type: functional; details: route oral
Mus musculus [20] = assay: Acquisition time in (R)-PIA) induced avoidance test (performed in mice) for antagonistic activity after p.o. administration of 1.25 mg/kg; type: functional; details: route oral
Rattus norvegicus [21] = assay: Retention time in Scopolamine induced avoidance test (performed in rat) for antagonistic activity after p.o. administration of 0.31 mg/kg; type: functional, organism-based; set-up: dose 0.31 mg/kg
Mus musculus [22] = assay: Retention time in (R)-PIA) induced avoidance test (performed in mice) for antagonistic activity after peroral administration of 0.31 mg/kg (n=15) (P<0.005); type: functional, organism-based; set-up: dose 0.31 mg/kg
Rattus norvegicus [23] = assay: Retention time in Scopolamine induced avoidance test (performed in rat) for antagonistic activity after peroral administration of 0.31 mg/kg (n=15); type: functional, organism-based; set-up: dose 0.31 mg/kg
Mus musculus [24] = assay: Acquisition time in (R)-PIA) induced avoidance test (performed in mice) for antagonistic activity after peroral administration of 0.31 mg/kg (n=15); type: functional; details: route oral
Rattus norvegicus [25] = assay: Acquisition time in Scopolamine induced avoidance test (performed in rat) for antagonistic activity after peroral administration of 0.02 mg/kg; details: route oral
Rattus norvegicus [26] = assay: Retention time in Scopolamine induced avoidance test (performed in rat) for antagonistic activity after peroral administration of 20 mg/kg (n=14); type: functional, organism-based; set-up: dose 20 mg/kg
Rattus norvegicus [27] = assay: Acquisition time in Scopolamine induced avoidance test (performed in rat) for antagonistic activity after peroral administration of 0.31 mg/kg (n=15); type: functional; details: route oral
Mus musculus [28] = assay: Acquisition time in (R)-PIA) induced avoidance test (performed in mice) for antagonistic activity after peroral administration of 20 mg/kg (n=15); type: functional; details: route oral
Mus musculus [29] = assay: Retention time in (R)-PIA) induced avoidance test (performed in mice) for antagonistic activity after peroral administration of 0.31 mg/kg; type: functional, organism-based; set-up: dose 0.31 mg/kg
Mus musculus [30] = assay: Tested for locomotor activity after oral administration of 10 mg/kg for 120 min; type: functional
Adenosine A2 receptor [31] = molecular target: Adenosine A2 receptor (Homo sapiens, UniProt P29275+P29274); assay: Binding affinity against Adenosine A2 receptor from human platelets with [125I]-N6-aminobenzyladenosine
Rattus norvegicus [32] = assay: Retention time in Scopolamine induced avoidance test (performed in […]) for antagonistic activity after peroral administration of 1.25 mg/kg (n=12) (P<0.01); type: functional, organism-based; set-up: dose 1.25 mg/kg
Mus musculus [33] = assay: Retention time in (R)-PIA) induced avoidance test (performed in mice) for antagonistic activity after peroral administration of 20 mg/kg (n=15) (P<0.005); type: functional, organism-based; set-up: dose 20 mg/kg
Adenosine A2 receptor [34] = molecular target: T2, Adenosine A2 receptor; assay: Binding affinity at Adenosine A2 receptor from rat striatal membranes by N-[3H] ethyladenosin-5'- uronamide displacement.
Mus musculus [35] = assay: Tested for locomotor activity after oral administration of 40 mg/kg for 120 min; type: functional
Mus musculus [36] = assay: Tested for locomotor activity after oral administration of […] for 120 min; type: functional
Rattus norvegicus [37] = assay: Retention time in Scopolamine induced avoidance test (performed in rat) for antagonistic activity after peroral administration of 5 mg/kg; type: functional, organism-based; set-up: dose 5 mg/kg
Rattus norvegicus [38] = assay: Acquisition time in Scopolamine induced avoidance test (performed in rat) for antagonistic activity after peroral administration of 1.25 mg/kg (n=12); type: functional; details: route oral

Question: Which Retention time (Mus musculus [1]) does the source give for `CCCn1c(=O)c2[nH]c(C3CCCC3)nc2n(CCC)c1=S` here?
Answer: Its Retention time is 52.7 s.

Question: What about the Retention time (Rattus norvegicus [2]) of the same compound?
Answer: The Retention time was 19 s.

Question: What about the Ki (Adenosine receptor A1) of the same compound?
Answer: The Ki was 6.6 nM.

Question: What about the Retention time (Rattus norvegicus [3]) of the same compound?
Answer: Its Retention time is 56.4 s.

Question: And the Retention time (Mus musculus [4])?
Answer: The Retention time was 104 s.

Question: And the Retention time (Rattus norvegicus [5])?
Answer: Its Retention time is 21.6 s.

Question: What about the Acquisition time (Rattus norvegicus [6]) of the same compound?
Answer: Its Acquisition time is 9.4 s.

Question: And the Acquisition time (Mus musculus [7])?
Answer: Its Acquisition time is 26.9 s.

Question: And the Retention time (Mus musculus [8])?
Answer: Its Retention time is 121 s.

Question: And the Acquisition time (Rattus norvegicus [9])?
Answer: Its Acquisition time is 8.9 s.

Question: And the Acquisition time (Mus musculus [10])?
Answer: The Acquisition time was 24.7 s.

Question: What about the Acquisition time (Rattus norvegicus [11]) of the same compound?
Answer: Its Acquisition time is 8.9 s.

Question: And the Acquisition time (Mus musculus [12])?
Answer: Its Acquisition time is 32.7 s.

Question: What about the Ki (Adenosine A2 receptor [13]) of the same compound?
Answer: Its Ki is greater than 10000 nM.

Question: And the Retention time (Rattus norvegicus [14])?
Answer: The Retention time was 52.4 s.

Question: And the Acquisition time (Rattus norvegicus [15])?
Answer: The Acquisition time was 9.9 s.

Question: What about the Retention time (Rattus norvegicus [16]) of the same compound?
Answer: Its Retention time is 75.3 s.

Question: And the Acquisition time (Rattus norvegicus [17])?
Answer: Its Acquisition time is 6.7 s.

Question: What about the Retention time (Mus musculus [18]) of the same compound?
Answer: The Retention time was 48.1 s.

Question: What about the Acquisition time (Rattus norvegicus [19]) of the same compound?
Answer: Its Acquisition time is 8.5 s.

Question: And the Acquisition time (Mus musculus [20])?
Answer: Its Acquisition time is 12.3 s.

Question: What about the Retention time (Rattus norvegicus [21]) of the same compound?
Answer: The Retention time was 25.8 s.

Question: Which results are given for `CC(C)Cn1c(=O)n(C)c(=O)c2[nH]c(C(C3CC3)C3CC3)nc21`?
Answer: Retention time (Mus musculus [1]): 349 s; Retention time (Mus musculus [22]): 370 s; Retention time (Rattus norvegicus [2]): 17.6 s; Retention time (Rattus norvegicus [3]): 22.8 s; Retention time (Rattus norvegicus [23]): 50.9 s; Retention time (Mus musculus [4]): 359 s; Retention time (Rattus norvegicus [5]): 9.9 s; Acquisition time (Rattus norvegicus [6]): 7.1 s; Acquisition time (Mus musculus [7]): 12.5 s; Acquisition time (Mus musculus [24]): 26.4 s; Acquisition time (Mus musculus [10]): 25.7 s; Acquisition time (Rattus norvegicus [25]): 10.1 s; Retention time (Rattus norvegicus [26]): 14.1 s; Acquisition time (Rattus norvegicus [15]): 11.8 s; Acquisition time (Rattus norvegicus [27]): 8.3 s; Retention time (Rattus norvegicus [16]): 17.6 s; Acquisition time (Rattus norvegicus [17]): 9.6 s; Retention time (Mus musculus [18]): 171 s; Acquisition time (Rattus norvegicus [19]): 11.5 s; Acquisition time (Mus musculus [20]): 19.9 s

Question: Which Retention time (Mus musculus [1]) does the source give for `CCCn1c(=O)c2nc(C3CCCC3)[nH]c2n(CCc2ccc(N)cc2)c1=O` here?
Answer: The Retention time was 152 s and 177 s.

Question: And the Retention time (Rattus norvegicus [2])?
Answer: The Retention time was 151 s.

Question: What about the Acquisition time (Mus musculus [28]) of the same compound?
Answer: Its Acquisition time is 23.5 s.

Question: What about the Retention time (Mus musculus [29]) of the same compound?
Answer: Its Retention time is 113 s.

Question: What about the Locomotor activity (Mus musculus [30]) of the same compound?
Answer: The Locomotor activity was 6693 Counts.

Question: And the Ki (Adenosine A2 receptor [31])?
Answer: Its Ki is 2000 nM.

Question: What about the Retention time (Rattus norvegicus [32]) of the same compound?
Answer: Its Retention time is 384 s.

Question: And the Acquisition time (Rattus norvegicus [6])?
Answer: Its Acquisition time is 20.8 s.

Question: What about the Retention time (Mus musculus [33]) of the same compound?
Answer: Its Retention time is 318 s.

Question: What about the Ki (Adenosine A2 receptor [34]) of the same compound?
Answer: The Ki was 430 nM.

Question: And the Acquisition time (Rattus norvegicus [9])?
Answer: The Acquisition time was 11.1 s.

Question: And the Locomotor activity (Mus musculus [35])?
Answer: Its Locomotor activity is 5867 Counts.

Question: What about the Acquisition time (Mus musculus [10]) of the same compound?
Answer: Its Acquisition time is 21.2 s.

Question: And the Acquisition time (Rattus norvegicus [11])?
Answer: The Acquisition time was 25.7 s.

Question: And the Locomotor activity (Mus musculus [36])?
Answer: The Locomotor activity was 6224 Counts.

Question: What about the Retention time (Rattus norvegicus [37]) of the same compound?
Answer: The Retention time was 255 s.

Question: What about the Retention time (Rattus norvegicus [16]) of the same compound?
Answer: Its Retention time is 160 s.

Question: And the Acquisition time (Rattus norvegicus [38])?
Answer: The Acquisition time was 18.3 s.

Question: What about the Acquisition time (Rattus norvegicus [19]) of the same compound?
Answer: Its Acquisition time is 12.3 s.

Question: What about the Acquisition time (Mus musculus [20]; 1.25 mg/kg) of the same compound?
Answer: Its Acquisition time is 28.7 s and 23.1 s.

Question: And the Retention time (Rattus norvegicus [21])?
Answer: Its Retention time is 255 s.
